Format in all cases: cell-based
Data set [1] addresses T1, TSHR (Homo sapiens, UniProt P16473).
T1 construct: expressed in transfected cells
The experiment in a line: cAMP accumulation radioimmunoassay (RIA), inhibition of TSH-induced cAMP production in HEK-293 cells stably expressing TSHR. The following applies: for Antagonistic effect (cAMP inhibition) on TSHR: 50 μM together with the respective agonist, RIA, HEK-293; for antagonistic activity (% inhibition): inhibiting cAMP stimulation by TSH, radioimmunoassay; for IC50: secondary screen (RIA), dose-dependent inhibition of cAMP production caused by TSH (EC80 value), HEK-293-TSHR; for Mode of antagonism vs. TSH (Schild analysis): bTSH dose response with increasing antagonist concentrations, wt TSHR. Also on record: antagonistic activity (% inhibition): concentration or dose not given beside the values. How it is done:
(§1) HEK-293 cells stably expressing TSHR, FSHR, LHGCR or CRF1R were cultured for 48 h and stimulated for 1 h at 37° C. with stimulation buffer (DMEM supplemented with 10 mM HEPES, 0.5% BSA, 0.25 mM 3-isobutyl-1-methylxanthine) containing the ligands as indicated. After stimulation medium was aspirated and reactions were stopped by lysis of the cells with 0.1% trifluoroacetic acid, 0.005% Triton X-100 for 30 min at 4° C. Supernatants were collected and heated at 95° C. for 10 min, dried in a rotation vacuum concentrator (Alpha-RCV, Christ) and finally stored at −20° C. until use. After reconstitution and acetylation of the samples (Jäschke et al. 2006), the cAMP content was determined using cAMP-^125I-tyrosyl methyl ester (10,000 cpm, IBL) and polyclonal rabbit anti cAMP antibodies. The radioactivity of the precipitate was determined in a γ-counter.
For the Secondary Screening cAMP accumulation was measured by radioimmunoassay (RIA) in HEK-293-TSHR cells as described before.
For the secondary screening we used a very sensitive in vitro technique, the radioimmunoassay. This assay was established and performed in HEK-293 cell line stably expressing TSHR.
Therefore RIA was used to measure the cAMP accumulation upon stimulation with TSH (EC80 value) and confirmed the desired effect for S4 and S9 with a clear decrease of cAMP production.

The target of data set [2] is T1, TSHR. The experiment in a line: Primary screening, Enzyme Fragment Complementation (EFC) cAMP assay in CHO-K1-TSHR cells. The conditions noted are these: 50 μM; after hit validation and exclusion of false positives. How it is done: Primary screening was performed using an Enzyme Fragment Complementation (EFC) technology. CHO-K1-TSHR cells (15000/well in a 384 well plate) were treated with 50 μM of each of the 16544 compounds of the ChemBioNet compound library of the Leibniz-Institut fuer Molekulare Pharmakologie (FMP), Berlin, Germany. EFC technology uses two fragments of one enzyme: an enzyme acceptor (EA) and an enzyme donor (ED). ED is labeled to (synthetic) cAMP. […] In this assay, free cAMP from cell lysates and ED-labeled cAMP compete for antibody binding sites. Unbound ED-cAMP is free to complement EA to form active enzyme, which subsequently produces a luminescent signal. Thus the luminescence signal increases with rising level of intracellular cAMP. All assay components were used after the manufacturer's protocol.
Hits were validated by dose-response curves using the EFC assay.
False-positive hits could be excluded by stimulating CHO-K1 cells without TSHR with Forskolin (23.4 μM) followed by addition of the compound of interest. Forskolin activates the Adenylyl-cyclase directly. Inhibition of this effect excludes the interaction between TSHR and compound.
For the implementation of the primary screen the Enzymes Fragment Complementation Technology (EFC) was selected.

Another data set deals with T2, FSHR (Homo sapiens, UniProt P23945).
T2 construct: expressed in transfected cells
T2 sequence (P23945 18-695): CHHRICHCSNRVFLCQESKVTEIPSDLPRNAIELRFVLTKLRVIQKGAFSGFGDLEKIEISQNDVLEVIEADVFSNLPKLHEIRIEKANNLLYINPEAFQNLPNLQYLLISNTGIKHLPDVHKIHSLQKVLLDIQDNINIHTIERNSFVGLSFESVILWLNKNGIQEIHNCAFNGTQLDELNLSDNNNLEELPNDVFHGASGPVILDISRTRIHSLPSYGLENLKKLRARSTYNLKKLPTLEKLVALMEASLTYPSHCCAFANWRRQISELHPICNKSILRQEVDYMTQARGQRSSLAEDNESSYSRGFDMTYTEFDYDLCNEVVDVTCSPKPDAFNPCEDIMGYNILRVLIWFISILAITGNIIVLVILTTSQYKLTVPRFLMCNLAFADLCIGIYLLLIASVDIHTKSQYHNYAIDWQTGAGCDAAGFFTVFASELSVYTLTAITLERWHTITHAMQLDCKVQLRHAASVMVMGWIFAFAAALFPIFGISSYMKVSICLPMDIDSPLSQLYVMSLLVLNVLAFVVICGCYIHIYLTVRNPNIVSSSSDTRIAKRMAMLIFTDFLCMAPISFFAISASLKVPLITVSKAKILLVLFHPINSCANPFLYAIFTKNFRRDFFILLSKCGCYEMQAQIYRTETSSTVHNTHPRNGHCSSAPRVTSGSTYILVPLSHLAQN
In words: Selectivity test: cAMP RIA in HEK-293 cells stably expressing FSHR. The conditions noted are these: 50 μM together with the respective agonist. How it is done: as §1
(§2) The antagonistic activity of compounds S4, S9, S37 and as reference compound, the micromolar inverse agonist 2-7 (Neumann et al. 2010) were tested on homologous members of the glycoprotein hormone receptor family, FSHR and LHCGR. […] All receptors were stably expressed in HEK-293 cells and the impact of each substance was measured upon administration of 50 μM together with the respective agonist. cAMP accumulation was quantified by RIA. The antagonistic potential of each compound was calculated. […]

The next data set addresses T3, LHCGR (Homo sapiens, UniProt P22888).
T3 construct: expressed in transfected cells
The experiment in a line: Selectivity test: cAMP RIA in HEK-293 cells stably expressing LHCGR. The following applies: 50 μM together with the respective agonist. Here is the method: as §1, §2

The target of the next data set is T4, wt TSHR (Homo sapiens, UniProt P16473).
T4 construct: expressed in transfected cells
The experiment in a line: cAMP stimulation by agonist compound C2 at wildtype TSHR with increasing antagonist concentrations. The following applies: C2 dose response with increasing antagonist concentrations. Here is the method: as §1
Moreover, a Schild plot analysis provided first interesting hints that S37 might compete with the binding site of TSH, since increasing concentrations of added S37 led to a right shift of the TSH dose response curve (FIG. 5A) and to a linear Schild plot (FIG. 5B). S37 seems not to compete with the transmembrane binding site of the previous reported agonist compound 2 (Neumann et al. 2009), since increasing concentrations of added S37 led to diminished maximal values of the dose response curve for compound 2 by unchanged EC50 value (FIG. 5C).

Data set [3] deals with Hek293 cell line stably expressing TSHR. In words: Toxicity test, alamar blue cell vitality. The following applies: 10 μM-100 μM. Here is the method:
The vitality of the cells was measured by the alamar blue test using Hek293 cell line stably expressing TSHR. Untreated cells and DMSO-treated cells (0.2% DMSO) were used as control.
Therefore, we conclude that substance S37 is not toxic for the concentration range evaluated by this assay.

The target in a further data set is T5, Δ1-408-TSHR (Homo sapiens, UniProt P16473).
T5 construct: This short construct (Δ1-408-TSHR.GFP) only consists of the transmembrane region; expressed in transfected cells
The experiment in a line: cAMP radioimmunoassay at ectodomain-truncated TSHR construct stimulated by compound 2. The following applies: Δ1-408-TSHR lacking the ectodomain. The source says: Ectodomain-truncated TSHR construct (Δ1-408-TSHR.GFP) was generated using quick change site-directed mutagenesis and restriction digestion to excise the desired fragment of the TSHR sequence. The DNA sequence encoding the truncated TSHR mutant was inserted into the GFP-N1 vector. The construct was fused C-terminally with GFP and N-terminally with a FLAG tag. The FLAG tag was inserted by overlap-extension PCR. A HEK-293 cell line stably expressing this construct was generated. Shortly, cells were transfected with Polyethylenimine and plasmid DNA in a 2:1 ratio in serum free medium (DMEM). Cells were selected with medium containing 400 μg/ml G418 for several weeks and then a polyclonal population was selected for GFP fluorescence in a cell sorting device (BD FACSAria II flow cytometer). Cell surface expression was confirmed by confocal laser-scanning microscopy (GFP fluorescence) and flow cytometry using anti-FLAG M2 (Sigma).
HEK-293 cells stably expressing TSHR, FSHR, LHGCR or CRF1R were cultured for 48 h and stimulated for 1 h at 37° C. with stimulation buffer (DMEM supplemented with 10 mM HEPES, 0.5% BSA, 0.25 mM 3-isobutyl-1-methylxanthine) containing the ligands as indicated. […] After reconstitution and acetylation of the samples (Jäschke et al. 2006), the cAMP content was determined using cAMP-^125I-tyrosyl methyl ester (10,000 cpm, IBL) and polyclonal rabbit anti cAMP antibodies. […]

“And” between values parts separate entries of the source, which are not always exact repeats. Equal values may be shown once.

T1 sequence (P16473 21-764): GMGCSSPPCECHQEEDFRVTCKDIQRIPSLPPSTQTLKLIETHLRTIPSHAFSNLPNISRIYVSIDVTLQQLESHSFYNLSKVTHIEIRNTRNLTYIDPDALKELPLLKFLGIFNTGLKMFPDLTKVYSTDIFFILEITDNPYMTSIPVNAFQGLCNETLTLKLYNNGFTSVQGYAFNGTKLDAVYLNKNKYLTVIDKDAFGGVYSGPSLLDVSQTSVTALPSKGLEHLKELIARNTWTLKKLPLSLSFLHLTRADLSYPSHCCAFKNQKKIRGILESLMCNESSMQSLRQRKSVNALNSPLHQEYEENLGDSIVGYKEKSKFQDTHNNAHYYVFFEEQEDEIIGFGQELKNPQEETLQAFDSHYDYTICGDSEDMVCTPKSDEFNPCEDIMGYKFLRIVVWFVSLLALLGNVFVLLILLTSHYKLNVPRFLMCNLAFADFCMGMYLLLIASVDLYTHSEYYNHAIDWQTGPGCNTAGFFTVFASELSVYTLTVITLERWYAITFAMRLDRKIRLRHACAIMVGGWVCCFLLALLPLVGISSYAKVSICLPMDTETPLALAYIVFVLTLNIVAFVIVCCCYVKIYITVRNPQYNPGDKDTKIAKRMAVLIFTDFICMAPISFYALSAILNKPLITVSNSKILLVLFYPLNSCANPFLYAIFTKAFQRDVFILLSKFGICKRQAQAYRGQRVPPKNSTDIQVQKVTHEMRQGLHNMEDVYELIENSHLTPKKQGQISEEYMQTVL
T4 sequence (P16473 21-764): as above
T5 sequence (P16473 409-764, stated change not applied): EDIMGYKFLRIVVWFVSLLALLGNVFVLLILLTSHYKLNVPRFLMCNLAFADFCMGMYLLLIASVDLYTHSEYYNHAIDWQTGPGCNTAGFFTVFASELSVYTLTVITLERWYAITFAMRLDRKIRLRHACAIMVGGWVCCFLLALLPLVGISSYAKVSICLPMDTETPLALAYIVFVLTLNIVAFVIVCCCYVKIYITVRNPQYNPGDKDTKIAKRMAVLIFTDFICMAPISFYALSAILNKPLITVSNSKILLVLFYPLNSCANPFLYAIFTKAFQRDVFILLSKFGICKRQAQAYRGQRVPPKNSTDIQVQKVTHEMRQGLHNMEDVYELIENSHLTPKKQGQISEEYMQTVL
T3 sequence (P22888 27-699, species assumed): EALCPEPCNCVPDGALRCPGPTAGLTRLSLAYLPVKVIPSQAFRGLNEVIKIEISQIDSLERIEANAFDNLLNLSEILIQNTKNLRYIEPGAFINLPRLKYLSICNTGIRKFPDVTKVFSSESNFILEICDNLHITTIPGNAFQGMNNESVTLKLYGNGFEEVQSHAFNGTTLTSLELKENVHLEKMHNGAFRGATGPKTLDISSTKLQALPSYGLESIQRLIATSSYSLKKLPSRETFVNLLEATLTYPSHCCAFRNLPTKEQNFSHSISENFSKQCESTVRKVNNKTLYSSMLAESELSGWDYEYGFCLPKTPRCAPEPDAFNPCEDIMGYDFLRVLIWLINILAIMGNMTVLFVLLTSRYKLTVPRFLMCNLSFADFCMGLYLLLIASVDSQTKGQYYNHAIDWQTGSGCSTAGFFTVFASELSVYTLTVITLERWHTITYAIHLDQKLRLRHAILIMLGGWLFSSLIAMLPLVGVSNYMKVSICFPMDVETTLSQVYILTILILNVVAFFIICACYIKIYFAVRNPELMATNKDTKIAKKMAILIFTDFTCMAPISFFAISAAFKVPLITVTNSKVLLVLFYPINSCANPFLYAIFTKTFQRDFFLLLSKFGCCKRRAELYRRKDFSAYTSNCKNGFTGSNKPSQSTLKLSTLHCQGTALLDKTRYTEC

For `Cc1ccc(N2C(=O)C3C4CC(C3C2=O)C2C(c3ccccc3)c3sc(=O)[nH]c3SC42)cc1` (stereo not shown) [Compound S4], on TSHR [1], the “Antagonistic effect (cAMP inhibition) on TSHR” value is “inhibits TSHR and FSHR activation”; the “antagonistic activity (% inhibition)” value was 63%; the IC50 is 48.9 µM and 49 µM. Moreover, the “Primary screen hit: cAMP production induced by thyrotropin” value on TSHR [2] was “potentially abolishing cAMP production”. Also, on FSHR, the “Antagonistic effect (cAMP inhibition) on FSHR” value was “inhibits TSHR and FSHR activation”.
`O=C1C2C3C=CC(C3)C2C(=O)N1c1ccc(N2CCN(c3cccc(C(F)(F)F)c3)CC2)c([N+](=O)[O-])c1` (stereo not shown) [Compound S9]: the “Antagonistic effect (cAMP inhibition) on LHCGR” value at LHCGR is recorded as “unspecifically inhibits all three receptors”. At TSHR [1], the “Antagonistic effect (cAMP inhibition) on TSHR” value is “unspecifically inhibits all three receptors”; the “Mode of antagonism vs. TSH (Schild analysis)” value is given as “non-competitive antagonism”; the “antagonistic activity (% inhibition)” value turned out to be 75%; the IC50 is 18.7 µM and 18.6 µM. In addition, the “Primary screen hit: cAMP production induced by thyrotropin” value at TSHR [2] is “potentially abolishing cAMP production”. For the same molecule, the “Antagonistic effect (cAMP inhibition) on FSHR” value on FSHR was “unspecifically inhibits all three receptors”. Besides, at wt TSHR, the “Mode of antagonism vs. C2” value is reported as “non-competitive antagonism”.
Take `O=C1C2C3C=CC(C3)C2C(=O)N1c1ccc(N2CCOCC2)c([N+](=O)[O-])c1` (stereo not shown) [Compound S26]: the “antagonistic activity (% inhibition)” value at TSHR [1] amounted to 35%.
With `O=C1[C@@H]2[C@H]3C[C@H]([C@@H]4Sc5[nH]c(=O)sc5[C@@H](c5ccccc5)[C@H]34)[C@@H]2C(=O)N1c1ccccc1` (racemic) [Compound S37, (4aS,5S,5aR,8aR,9R,9aS,10R)-7,10-diphenyl-3,4a,5,5a,8a,9,9a,10-octahydro-5,9-methanothiazolo[5′,4′:5,6]thiopyrano[2,3-f]isoindole-2,6,8(7H)-trione], at TSHR [1], the “Antagonistic effect (cAMP inhibition) on TSHR” value is “inhibits TSHR comparable to the reference compound 2-7(NIH)”, the “Mode of antagonism vs. TSH (Schild analysis)” value is recorded as “competitive antagonism”, the “antagonistic activity (% inhibition)” value is 70% and the IC50 was 28 µM. Besides, the “TSHR selectivity versus homologous receptors LHCGR and FSHR” value on TSHR [1] (from cAMP inhibition at TSHR, FSHR, LHCGR at 50 μM) is “highly TSHR-selective”. Besides, the “Toxicity (cell vitality, alamar blue)” value in data set [3] is on record as “not toxic”. The “Mode of antagonism vs. C2 at truncated construct” value on Δ1-408-TSHR is “non-competitive antagonism”. For the same molecule, the “Mode of antagonism vs. C2” value on wt TSHR is listed as “non-competitive antagonism”.
